Among the test systems are HL-60; Hs-578T; OVCAR-4; ACHN; SK-MEL-5; EKVX; Malme-3M; U-251; NCI-H226; KM12; NCI-H522; MDA-N; RPMI-8226; HCT-116; SK-MEL-2; COLO 205; TK-10; M14; OVCAR-5; MDA-MB-231.
Holding throughout (assay): DTP human tumour cell line panel, 48 h

What is called GI50 is the concentration that inhibits growth by half.

Each structure is given as a SMILES string.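 Five compound concentrations were applied to cells in 96-well plates for 48 hours; endpoints were derived by simple linear interpolation of the resulting dose-response curve. GI50 = concentration required for 50% inhibition of growth.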 Calls of active or inactive are those of the source. Rule as the data show it: active = GI50 up to about 1.1 µM and inactive = higher.

Turning to `CCC1(O)CC(OC2CC(N(C)C)C(OC3CC(O)C(OC4OC(C)C(=O)C=C4N)C(C)O3)C(C)O2)c2c(O)c3c(c(O)c2C1C(=O)OC)C(=O)c1cccc(O)c1C3=O` (stereo not given), the GI50 in the assay with HL-60 was 0.00154 µM (active); in the assay with Hs-578T, 0.0309 µM (active); in the assay on OVCAR-4, 0.01 µM (active); in the assay on ACHN, 0.00418 µM (active); in the assay with SK-MEL-5, 0.00417 µM (active); in the assay with EKVX, 0.0103 µM (active). For the same compound, the GI50 in the assay on Malme-3M is 0.0114 µM (active); in the assay with U-251, 0.00336 µM (active); in the assay with NCI-H226 it was 0.0139 µM (active); with KM12, 0.0032 µM (active); with NCI-H522, 0.0121 µM (active); in the assay on MDA-N it was 0.0048 µM (active). The GI50 was 0.00314 µM (active) with RPMI-8226; 0.000617 µM (active) with HCT-116; 0.00927 µM (active) in the assay on SK-MEL-2; 0.00376 µM (active) in the assay on COLO 205; 0.0168 µM (active) in the assay with TK-10; 0.01 µM (active) in the assay on M14. The GI50 in the assay on OVCAR-5 is 0.00792 µM (active); in the assay on MDA-MB-231, 0.0583 µM (active).
As to `CN(C)c1ccc(C(c2ccc(N(C)C)cc2)c2ccc([N+](=O)[O-])cc2)cc1`, the GI50 in the assay with HL-60 is 23.9 µM (inactive); with Hs-578T it was > 100 µM (inactive); in the assay with OVCAR-4, > 100 µM (inactive); in the assay on ACHN, > 100 µM (inactive); in the assay with SK-MEL-5 it was > 100 µM (inactive); in the assay with EKVX, > 100 µM (inactive). Moreover, the GI50 in the assay with Malme-3M, in the assay with U-251, in the assay with NCI-H226, in the assay with KM12, in the assay on NCI-H522 and in the assay with MDA-N was > 100 µM (inactive) throughout. The GI50 in the assay with RPMI-8226 is 15.1 µM (inactive); with HCT-116 it was > 100 µM (inactive); in the assay on SK-MEL-2, > 100 µM (inactive); in the assay with COLO 205, > 100 µM (inactive); with TK-10, > 100 µM (inactive); in the assay with M14, > 100 µM (inactive). For the same compound, the GI50 in the assay on OVCAR-5 and in the assay on MDA-MB-231 was > 100 µM (inactive) throughout.
As for `N=C(N)c1ccc(/N=N\c2c(O)ccc3cc4c(/N=N\c5ccc(C(=N)N)cc5)c(O)ccc4cc23)cc1`, the GI50 is 25.2 µM (inactive) in the assay with HL-60; > 100 µM (inactive) in the assay on Hs-578T; > 100 µM (inactive) in the assay with OVCAR-4; > 100 µM (inactive) with ACHN; 51.6 µM (inactive) in the assay on SK-MEL-5; > 100 µM (inactive) in the assay on EKVX. In addition, the GI50 was > 100 µM (inactive) in the assay on Malme-3M; 51.1 µM (inactive) in the assay on U-251; > 100 µM (inactive) in the assay on NCI-H226; > 100 µM (inactive) in the assay on KM12; > 100 µM (inactive) with NCI-H522; > 100 µM (inactive) in the assay with MDA-N. The GI50 was 28 µM (inactive) in the assay with RPMI-8226; 50 µM (inactive) with HCT-116; > 100 µM (inactive) in the assay on SK-MEL-2; > 100 µM (inactive) in the assay with COLO 205; > 100 µM (inactive) in the assay on TK-10; > 100 µM (inactive) in the assay on M14. The GI50 in the assay on OVCAR-5 was > 100 µM (inactive); with MDA-MB-231 it was 29 µM (inactive).
On to `Cc1[nH]c(-c2ccccc2)c(-c2ccc(Cl)cc2)c1C(=O)ONC(=O)c1ccccc1`, for which the GI50 in the assay with HL-60 is 1.5 µM (inactive); with Hs-578T, 2.26 µM (inactive); in the assay with OVCAR-4, 2.62 µM (inactive); with ACHN, 1.77 µM (inactive); in the assay on SK-MEL-5 it was 3.41 µM (inactive); in the assay with EKVX it was 3.07 µM (inactive). The GI50 was 10.2 µM (inactive) in the assay with Malme-3M; 1.78 µM (inactive) with U-251; 3.61 µM (inactive) in the assay on NCI-H226; 7.24 µM (inactive) in the assay with KM12; 2.1 µM (inactive) with NCI-H522; 2 µM (inactive) with MDA-N. Moreover, the GI50 with RPMI-8226 is 3.02 µM (inactive); with HCT-116 it was 2.11 µM (inactive); in the assay on SK-MEL-2 it was 2.9 µM (inactive); with COLO 205, 5.93 µM (inactive); with TK-10, 2.81 µM (inactive); in the assay on M14, 4.55 µM (inactive). Also, the GI50 is 5.07 µM (inactive) in the assay with OVCAR-5 and 3.64 µM (inactive) with MDA-MB-231.
In the case of `Cc1cc2c(c3oc(C(O)(CO)C4CO4)cc(=O)c13)C(=O)c1c(O)cccc1C2=O` (stereo not given), the GI50 in the assay with HL-60 was 0.000377 µM (active); in the assay with Hs-578T, 0.00436 µM (active); in the assay with OVCAR-4, 0.00158 µM (active); with ACHN, 0.000278 µM (active); in the assay on SK-MEL-5, 0.002 µM (active); with EKVX it was 0.0023 µM (active). Moreover, the GI50 in the assay on Malme-3M is 0.00169 µM (active); with U-251, 0.000826 µM (active); with NCI-H226, 0.00237 µM (active); in the assay on KM12 it was 0.00104 µM (active); in the assay with NCI-H522, 0.0012 µM (active); with MDA-N it was 0.00131 µM (active). For the same compound, the GI50 with RPMI-8226 is 0.000313 µM (active); in the assay with HCT-116 it was 0.000363 µM (active); in the assay with SK-MEL-2, 0.00151 µM (active); with COLO 205, 0.00163 µM (active); in the assay with TK-10 it was 0.00244 µM (active); with M14, 0.00168 µM (active). In addition, the GI50 in the assay with OVCAR-5 is 0.00229 µM (active); with MDA-MB-231, 0.00213 µM (active).
As to `CC(C)CNc1nc(N)nc(O)c1NC=O`, the GI50 in the assay with HL-60, in the assay on Hs-578T, with OVCAR-4, in the assay on ACHN, in the assay with SK-MEL-5 and in the assay with EKVX was > 100 µM (inactive) in each case. Further, the GI50 in the assay on Malme-3M, in the assay with U-251, in the assay with NCI-H226, in the assay on KM12, in the assay on NCI-H522 and in the assay on MDA-N was > 100 µM (inactive) in each case. Besides, the GI50 in the assay on RPMI-8226, in the assay on HCT-116, in the assay with SK-MEL-2, in the assay with COLO 205, with TK-10 and in the assay with M14 was > 100 µM (inactive) throughout. The GI50 with OVCAR-5 and in the assay on MDA-MB-231 was > 100 µM (inactive) in each case.
`CC(=O)Nc1ccc(/C=C2/NC(=S)N(/C=C3\C(=O)Oc4ccccc4C3=O)C2=O)cc1`: the GI50 with HL-60 is 40.5 µM (inactive); with Hs-578T it was 22.5 µM (inactive); with OVCAR-4, 51.1 µM (inactive); in the assay with ACHN, > 100 µM (inactive); with SK-MEL-5, 77.6 µM (inactive); in the assay on EKVX, > 100 µM (inactive). Besides, the GI50 with Malme-3M was > 100 µM (inactive); in the assay on U-251, 46.3 µM (inactive); with NCI-H226, > 100 µM (inactive); in the assay with KM12 it was 45.2 µM (inactive); in the assay with NCI-H522 it was 36.7 µM (inactive); in the assay on MDA-N, 52 µM (inactive). Further, the GI50 in the assay with RPMI-8226 was 47.9 µM (inactive); with HCT-116 it was 52.7 µM (inactive); in the assay on SK-MEL-2, 40.9 µM (inactive); in the assay on COLO 205, 61.8 µM (inactive); in the assay on TK-10, 55.8 µM (inactive); in the assay on M14 it was 58.3 µM (inactive). In addition, the GI50 with OVCAR-5 was > 100 µM (inactive); in the assay on MDA-MB-231, 16.2 µM (inactive).
Consider `CCCCC(=C=C1CCCCC1O)C1CCCN1C(=O)OC(C)(C)C` (stereo not given), for which the GI50 with HL-60 was 11.1 µM (inactive); in the assay with Hs-578T it was 19.3 µM (inactive); in the assay on OVCAR-4, 13.9 µM (inactive); in the assay on ACHN, 15.8 µM (inactive); in the assay with SK-MEL-5, 16.6 µM (inactive); in the assay with EKVX, 14.9 µM (inactive). Besides, the GI50 with Malme-3M is 17.3 µM (inactive); with U-251, 15.9 µM (inactive); with NCI-H226, 17.4 µM (inactive); in the assay on KM12 it was 16.6 µM (inactive); with NCI-H522, 17.1 µM (inactive); with MDA-N it was 16.4 µM (inactive). The GI50 is 12.6 µM (inactive) in the assay with RPMI-8226; 14.3 µM (inactive) with HCT-116; 16.2 µM (inactive) in the assay on SK-MEL-2; 17.3 µM (inactive) in the assay with COLO 205; 16.1 µM (inactive) in the assay on TK-10; 16.9 µM (inactive) in the assay with M14. Further, the results for the GI50 in the assay on OVCAR-5 and in the assay on MDA-MB-231 were 16 µM (inactive) and 16.1 µM (inactive), respectively.
Regarding `COC(=O)C1CCC(=O)N1C(c1ccc(OC)cc1)c1ccc(OC)cc1` (stereo not given), the GI50 in the assay on HL-60, with Hs-578T, with OVCAR-4, in the assay on ACHN, with SK-MEL-5 and in the assay with EKVX was > 100 µM (inactive) each time. The GI50 with Malme-3M, in the assay with U-251, in the assay on NCI-H226, in the assay on KM12, with NCI-H522 and with MDA-N was > 100 µM (inactive) in each case. Moreover, the GI50 in the assay on RPMI-8226, with HCT-116, in the assay with SK-MEL-2, with COLO 205, in the assay on TK-10 and in the assay on M14 was > 100 µM (inactive) in each case. The GI50 in the assay on OVCAR-5 and in the assay with MDA-MB-231 was > 100 µM (inactive) throughout.
For the compound `C[C@H]1[C@H](C)CC[C@]2(C(=O)OC3OC(CO)C(O)C(O)C3O)CC[C@]3(C)C(=CC[C@@H]4[C@@]5(C)C[C@H]6OC(=O)c7cc(O)c(O)c(O)c7-c7c(cc(O)c(O)c7O)C(=O)O[C@@H]6C(CO)(CO)[C@@H]5CC[C@]43C)[C@H]12` (stereo not given in full), the GI50 is 44 µM (inactive) with HL-60; > 100 µM (inactive) with Hs-578T; 27.1 µM (inactive) in the assay with OVCAR-4; > 100 µM (inactive) in the assay with ACHN; 72.9 µM (inactive) with SK-MEL-5; > 100 µM (inactive) in the assay with EKVX. Besides, the GI50 with Malme-3M is > 100 µM (inactive); in the assay on U-251, 17.7 µM (inactive); in the assay on NCI-H226, > 91.8 µM (inactive); with KM12, 42.9 µM (inactive); in the assay on NCI-H522, 16.6 µM (inactive); with MDA-N, 25.5 µM (inactive). The GI50 was > 100 µM (inactive) in the assay with RPMI-8226; 54.1 µM (inactive) in the assay with HCT-116; > 100 µM (inactive) with SK-MEL-2; > 100 µM (inactive) in the assay on COLO 205; > 100 µM (inactive) in the assay on TK-10; > 100 µM (inactive) in the assay with M14. In addition, the GI50 was > 95.9 µM (inactive) in the assay on OVCAR-5 and 15.6 µM (inactive) in the assay with MDA-MB-231.

(Values after ChEMBL document CHEMBL1201862, “PubChem BioAssay data set” (2004).)
